{
  "source": "paper PMC5380659",
  "about": "“Unique charge-dependent constraint on collagen recognition by integrin α10β1” (Matrix Biology, 2017)",
  "key": {"[1]": {"tested_on": "human recombinant GST-α10 I domain", "experiment": "Solid-phase binding assay (SPBA) of wild-type α10 I domain", "conditions": "short THPs, 2 mM Mg^2 +, 1 h, Fig. 4A", "description": "The α10 I domain was applied to the collagen II and III Toolkits in the presence or absence of Mg^2 +, and was detected using anti-GST, as described in Experimental: data are shown in Fig. 1. The background response is indicated by wells coated with the control peptide, GPP10 (corresponding to the host sequence), or BSA.\n(§1) I domain adhesion was determined colorimetrically, as described, here termed solid phase binding assay (SPBA). Peptides were coated at 10 μg/ml for 1 h at 22 °C on Immulon-2 HB 96-well plates (Thermo Life Sciences, Basingstoke, UK), and blocked for 1 h with 200 μl of TBS containing 50 mg/ml bovine serum albumin. Wells were washed four times with 200 μl of the adhesion buffer (TBS with 1 mg/ml bovine serum albumin) before adding 100 μl of adhesion buffer containing 10 μg/ml of recombinant GST I domains in the presence of either 2 mM MgCl2 or EDTA for 1 h at room temperature. Wells were washed five times with 200 μl of adhesion buffer containing MgCl2 or EDTA, before adding 100 μl of adhesion buffer containing the anti-GST-HRP conjugate at 1:10,000 dilution for 1 h at room temperature. After washing, colour was developed using an ImmunoPure TMB Substrate Kit (Pierce) according to the manufacturer's instructions."}, "[2]": {"tested_on": "collagen-binding integrins", "set-up": "method as in 3 sources, ref [7], [8] = [7]; PMID 10778855; doi:10.1016/S0092-8674(00)80622-4; 7 Emsley J. Knight C.G. Farndale R.W. Barnes M.J. Liddington R.C. Structural basis of collagen recognition by integrin alpha2beta1 Cell 101 1 2000 47 56 10778855 10.1016/S0092-8674(00)80622-4 || [8]; PMID 16326707; doi:10.1074/jbc.M509818200; 8 Raynal N. Hamaia S.W. Siljander P.R. Maddox B. Peachey A.R. Fernandez R. Foley L.J. Slatter D.A. Jarvis G.E. Farndale R.W. Use of synthetic peptides to locate novel integrin alpha2beta1-binding moti ||| ref [8], [10] = [8]; PMID 16326707; doi:10.1074/jbc.M509818200; 8 Raynal N. Hamaia S.W. Siljander P.R. Maddox B. Peachey A.R. Fernandez R. Foley L.J. Slatter D.A. Jarvis G.E. Farndale R.W. Use of synthetic peptides to locate novel integrin alpha2beta1-binding moti || [10]; PMID 16043429; doi:10.1074/jbc.M502431200; 10 Kim J.K. Xu Y. Xu X. Keene D.R. Gurusiddappa S. Liang X. Wary K.K. Hook M. A novel binding site in collagen type III for the integrins, alpha 1beta 1 and alpha 2beta 1 J. Biol. Chem. 280 2005 32512 ||| ref [11] = [11]; PMID 10986291; doi:10.1074/jbc.M007668200; 11 Xu Y. Gurusiddappa S. Rich R.L. Owens R.T. Keene D.R. Mayne R. Hook A. Hook M. Multiple binding sites in collagen type I for the integrins α1β1 and α2β1 J. Biol. Chem. 275 2000 38981 38989 10986291", "conditions": "cited from earlier work", "from_the_text": "Many related motifs have now been identified using the Collagen Toolkits developed in this laboratory for the purpose. These are libraries of overlapping peptides of 27 amino acids of collagen primary sequence (guest sequence), flanked ..."}, "[3]": {"tested_on": "α10β1", "experiment": "Overall recognition by α10β1 (I domain and C2C12-α10β1 cells, summary)", "conditions": "abstract and discussion; I domain and/or C2C12-α10β1 cells", "description": "as §1\nThe mouse myoblast cell line, C2C12, (control and transfectants, C2C12-α1β1, C2C12-α2β1, C2C12-α10β1 or C2C12-α11β1) was maintained in RPMI medium containing 10% fetal bovine serum, 2 mM glutamine, 100 IU/ml penicillin, 100 μg/ml streptomycin, and 2.5 μg/ml amphotericin. Cells were harvested by centrifugation, washed, and suspended at 0.5 × 10^6/ml in Tris-buffered saline supplemented with 5.5 mM glucose and either 2 mM EDTA or 2 mM MgCl2. SPBA was performed as follows: 100 μl of the cell suspension was added to peptide-coated wells [42] at 20 °C for 60 min. Cell adhesion was determined colorimetrically after lysis, using a lactate dehydrogenase (LDH)-based cell detection kit (Roche Diagnostics) according to the supplier's instructions.\nTo quantitate C2C12-α10β1 binding to collagen peptides, we used the impedance-based xCELLigence system (Acea) that allows label-free, dynamic monitoring of cell adhesion in real-time. The assay system expresses the adhesion-dependent rise in well impedance in units of cell index (CI), defined as (Rn − Rb) / 15; where Rn is the electrical impedance of each cell-containing well and Rb is the background impedance of the well with medium alone"}, "[4]": {"tested_on": "integrin α1β1", "set-up": "method as in 3 sources, ref [4]; PMID 19693543; doi:10.1007/s00441-009-0834-6; 4 Barczyk M. Carracedo S. Gullberg D. Integrins Cell Tissue Res. 339 1 2010 269 280 19693543 10.1007/s00441-009-0834-6 PMC2784866 ||| ref [12] = [12]; PMID 22654115; doi:10.1074/jbc.M112.353144; 12 Hamaia S.W. Pugh N. Raynal N. Nemoz B. Stone R. Gullberg D. Bihan D. Farndale R.W. Mapping of potent and specific binding motifs, GLOGEN and GVOGEA, for integrin alpha1beta1 using collagen toolkits ||| ref not given", "conditions": "cited from earlier work", "from_the_text": "The collagen-binding integrin family is complete, with four established members, α1β1, α2β1, α10β1 and α11β1. These are highly-conserved, heterodimeric receptors with an important structural feature in common, the presence of an I (inserted) domain which contains the metal ion-dependent adhesion site (MIDAS). The MIDAS is a constellation of electronegative residues at the distal surface of this 200-residue domain that, in the resting, non-ligated state, can co-ordinate a Mg^2 + ion. […] Many related motifs have now been identified using the Collagen Toolkits developed in this laboratory for the purpose. These are libraries of overlapping peptides of 27 amino acids of collagen primary sequence (guest sequence), flanked ... || Why would collagen II differ in this respect?"}, "[5]": {"tested_on": "Other I domains that lack such a positive residue", "experiment": "SPBA of I domains that lack the positive residue (wild type)", "type": "binding, human", "conditions": "I domains lacking a positive residue at position 215", "description": "Fig. 8 Arginine substitution of I domain surface reduces binding to Toolkit peptide III-4. Wild type I domain from α1, α2 and α10 were allowed to adhere to Toolkit peptide III-4 that contains GROGER, as described in Fig. 1, and binding is shown in A, B and C, respectively. In D and E, the natural glutamine residues of α1, Q214, and of α2, Q215, was replaced with arginine. In F, the natural arginine, R215, of α10 was replaced with glutamine.\nas §1"}},
  "note": "“Also recorded” adds a separate entry of the source.",
  "data": [
    {"substance": "GFOGER [THP containing GFOGER served as positive control, reference compound]", "values": [
      {"measurement": "Binding of α10 I domain to short triple-helical peptides", "setting": "[1]", "result": "less well"},
      {"measurement": "Ligand of collagen-binding integrins, highest affinity motif", "setting": "[2]; in collagens I and II, ref [7], [8]", "result": "highest affinity ligand"}
    ]},
    {"substance": "GLOGEN [short THP containing GLOGEN]", "values": [
      {"measurement": "Binding of α10 I domain to short triple-helical peptides", "setting": "[1]", "result": "bound strongly"},
      {"measurement": "Recognition by α10β1, summary", "setting": "[3]", "result": "selective ligand in preference to GFOGER; also recorded: high-affinity site"},
      {"measurement": "Affinity for integrin α1β1", "setting": "[4]; ref [12]", "result": "high-affinity ligand"},
      {"measurement": "Affinity for integrin α1β1, discussion", "setting": "[4]; ref not given", "result": "high-affinity site"}
    ]},
    {"substance": "GROGER [short triple-helical peptide containing GROGER]", "values": [
      {"measurement": "Recognition by α10β1, summary", "setting": "[3]", "result": "only weakly recognised by α10β1; also recorded: compromised in the context of α10β1; also recorded: α10-repellent"},
      {"measurement": "Binding by other I domains", "setting": "[5]", "result": "bind GROGER well"},
      {"measurement": "Ligand of collagen-binding integrins, GROGER", "setting": "[2]; ref [8], [10]", "result": "quite a good ligand"}
    ]}
  ]
}
